Drawing on US20240239752A1, “BICYCLIC HETEROAROMATIC INHIBITORS OF KLK5” (BioCryst Pharmaceuticals, Inc., priority 2021, published 2024), this text covers IC50 for 31 molecules.

Structures are written as SMILES.

Broadly, the IC50 is the concentration that inhibits the measured activity by half.

The target of this test is T1, recombinant human KLK5 (Homo sapiens, UniProt Q9Y337).
T1 construct: purchased Novoprotein or R&D Systems C415 or 1108-SE
T1 sequence (Q9Y337 23-293): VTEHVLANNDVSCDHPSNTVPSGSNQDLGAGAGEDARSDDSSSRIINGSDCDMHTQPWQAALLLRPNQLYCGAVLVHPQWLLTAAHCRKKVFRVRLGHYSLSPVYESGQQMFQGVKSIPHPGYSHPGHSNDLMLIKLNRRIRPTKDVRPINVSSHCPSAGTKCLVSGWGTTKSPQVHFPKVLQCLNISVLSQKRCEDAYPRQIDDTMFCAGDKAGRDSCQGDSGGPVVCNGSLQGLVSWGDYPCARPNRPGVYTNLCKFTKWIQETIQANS
As to the kind of experiment: Kallikrein (KLK) 5 enzymatic assay (Boc-VPR-AMC fluorogenic substrate). Particulars: recombinant human KLK5 0.1 μg/well, Boc-VPR-AMC 100 μM, pH 7.5, room temperature, 1% DMSO; tested a minimum of three times. It is filed as biochemical. The method, boiled down:
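Fluorogenic rate assay at pH 7.5 (0.1 M NaH2PO4, 1% DMSO, room temperature), run at least three times per compound. Compound was premixed with 0.1 μg/well recombinant human KLK5 before adding 100 μM Boc-VPR-AMC; AMC release was read at ex 380/em 460 nm, and IC50 derived from inhibition of rate vs DMSO control.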
In the case of `Cc1ccc(OCc2nn(C3CCC3)c3ccc(-c4cccc5c(N)nccc45)cc23)c(CC(=O)O)c1` [Compound 165b, 2-(2-((5-(1-aminoisoquinolin-5-yl)-1-cyclobutyl-1H-indazol-3-yl)methoxy)-5-methylphenyl)acetic acid], the IC50 is < 1000 nM.

On to `Nc1nccc2ccc(-c3ccc4c(c3)c(COc3ccc(F)cc3CC(=O)O)nn4C3CCC3)cc12` [Compound 166d, 2-(2-((5-(1-aminoisoquinolin-7-yl)-1-cyclobutyl-1H-indazol-3-yl)methoxy)-5-fluorophenyl)acetic acid], for which the IC50 was < 1000 nM.

Consider `Nc1nccc2c(-c3ccc4c(c3)c(COc3ccc(F)cc3CC(=O)O)nn4C3CCC3)cccc12` [Compound 167b, 2-(2-((5-(1-aminoisoquinolin-5-yl)-1-cyclobutyl-1H-indazol-3-yl)methoxy)-5-fluorophenyl)acetic acid], for which the IC50 was < 1000 nM.

With `Nc1nccc2c(-c3ccc4c(c3)c(COc3cc(F)ccc3CC(=O)O)nn4C3CCC3)cccc12` [Compound 168c, 2-(2-((5-(1-aminoisoquinolin-5-yl)-1-cyclobutyl-1H-indazol-3-yl)methoxy)-4-fluorophenyl)acetic acid], the IC50 was < 1000 nM.

As to `COc1ccc(CC(=O)O)c(OCc2nn(C3CCC3)c3ccc(-c4cccc5c(N)nccc45)cc23)c1` [Compound 169c, 2-(2-((5-(1-aminoisoquinolin-5-yl)-1-cyclobutyl-1H-indazol-3-yl)methoxy)-4-methoxyphenyl)acetic acid], the half-inhibitory concentration (IC50) was < 1000 nM.

On to `COc1ccc(OCc2nn(C3CCC3)c3ccc(-c4ccc5ccnc(N)c5c4)cc23)c(CC(=O)O)c1` [Compound 170c, 2-(2-((5-(1-aminoisoquinolin-7-yl)-1-cyclobutyl-1H-indazol-3-yl)methoxy)-5-methoxyphenyl)acetic acid], for which the 50% inhibitory concentration (IC50) was < 1000 nM.

As for `COc1ccc(OCc2nn(C3CCC3)c3ccc(-c4cccc5c(N)nccc45)cc23)c(CC(=O)O)c1` [Compound 171b, 2-(2-((5-(1-aminoisoquinolin-5-yl)-1-cyclobutyl-1H-indazol-3-yl)methoxy)-5-methoxyphenyl)acetic acid], the IC50 is < 1000 nM.

For `COc1cccc(OCc2nn(C3CCC3)c3ccc(-c4ccc5ccnc(N)c5c4)cc23)c1CC(=O)O` [Compound 172d, 2-(2-((5-(1-aminoisoquinolin-7-yl)-1-cyclobutyl-1H-indazol-3-yl)methoxy)-6-methoxyphenyl)acetic acid], the IC50 fell in the range of 1000 to 10000 nM.

With `COc1cccc(OCc2nn(C3CCC3)c3ccc(-c4cccc5c(N)nccc45)cc23)c1CC(=O)O` [Compound 173b, 2-(2-((5-(1-aminoisoquinolin-5-yl)-1-cyclobutyl-1H-indazol-3-yl)methoxy)-6-methoxyphenyl)acetic acid], the IC50 is < 1000 nM.

On to `CCOC(=O)Cc1cccc(C#N)c1OCc1nn(C2CCC2)c2ccc(Br)cc12` [Compound 174c, ethyl 2-(2-((5-bromo-1-cyclobutyl-1H-indazol-3-yl)methoxy)-3-cyanophenyl)acetate], for which the IC50 fell in the range of 1000 to 10000 nM.

Turning to `N#Cc1cccc(CC(=O)O)c1OCc1nn(C2CCC2)c2ccc(-c3cccc4c(N)nccc34)cc12` [Compound 175b, 2-(2-((5-(1-aminoisoquinolin-5-yl)-1-cyclobutyl-1H-indazol-3-yl)methoxy)-3-cyanophenyl)acetic acid], the IC50 fell in the range of 1000 to 10000 nM.

As to `Nc1nccc2ccc(-c3ccc4c(c3)c(COc3c(CC(=O)O)cccc3C(=O)O)nn4C3CCC3)cc12` [Compound 176a, 2-((5-(1-aminoisoquinolin-7-yl)-1-cyclobutyl-1H-indazol-3-yl)methoxy)-3-(carboxymethyl)benzoic acid], the IC50 was < 1000 nM.

On to `Nc1nccc2c(-c3ccc4c(c3)c(COc3c(CC(=O)O)cccc3C(=O)O)nn4C3CCC3)cccc12` [Compound 177a, 2-((5-(1-aminoisoquinolin-5-yl)-1-cyclobutyl-1H-indazol-3-yl)methoxy)-3-(carboxymethyl)benzoic acid], for which the concentration for half-maximal inhibition (IC50) was in the range of 1000 to 10000 nM.

For the molecule `CCn1nc(COc2ccccc2CC(=O)O)c2cc(-c3cccc4c(N)nccc34)ccc21` [Compound 178f, 2-(2-((5-(1-aminoisoquinolin-5-yl)-1-ethyl-1H-indazol-3-yl)methoxy)phenyl)acetic acid], the IC50 is < 1000 nM.

For the molecule `CCn1nc(COc2ccccc2CC(=O)O)c2cc(-c3ccc4ccnc(N)c4c3)ccc21` [Compound 179b, 2-(2-((5-(1-aminoisoquinolin-7-yl)-1-ethyl-1H-indazol-3-yl)methoxy)phenyl)acetic acid], the IC50 was < 1000 nM.

For the molecule `CCc1cccc(OCc2nn(C3CCC3)c3ccc(-c4ccc5ccnc(N)c5c4)cc23)c1CC(=O)O` [Compound 180g, 2-(2-((5-(1-aminoisoquinolin-7-yl)-1-cyclobutyl-1H-indazol-3-yl)methoxy)-6-ethylphenyl)acetic acid], the IC50 fell in the range of 1000 to 10000 nM.

For `CCc1cccc(OCc2nn(C3CCC3)c3ccc(-c4cccc5c(N)nccc45)cc23)c1CC(=O)O` [Compound 181b, 2-(2-((5-(1-aminoisoquinolin-5-yl)-1-cyclobutyl-1H-indazol-3-yl)methoxy)-6-ethylphenyl)acetic acid], the IC50 was < 1000 nM.

With `CCOC(=O)Cc1ccccc1OCc1nn(CCF)c2ccc(Br)cc12` [Compound 182c, ethyl 2-(2-((5-bromo-1-(2-fluoroethyl)-1H-indazol-3-yl)methoxy)phenyl)acetate], the IC50 is < 1000 nM.

As for `Nc1nccc2c(-c3ccc4c(c3)c(COc3ccccc3CC(=O)O)nn4CCF)cccc12` [Compound 183b, 2-(2-((5-(1-aminoisoquinolin-5-yl)-1-(2-fluoroethyl)-1H-indazol-3-yl)methoxy)phenyl)acetic acid], the IC50 was < 1000 nM.

As to `CCCCn1nc(COc2ccccc2CC(=O)O)c2cc(-c3ccc4ccnc(N)c4c3)ccc21` [Compound 184e, 2-(2-((5-(1-aminoisoquinolin-7-yl)-1-butyl-1H-indazol-3-yl)methoxy)phenyl)acetic acid], the IC50 was < 1000 nM.

As for `CCCCn1nc(COc2ccccc2CC(=O)O)c2cc(-c3cccc4c(N)nccc34)ccc21` [Compound 185b, 2-(2-((5-(1-aminoisoquinolin-5-yl)-1-butyl-1H-indazol-3-yl)methoxy)phenyl)acetic acid], the IC50 is < 1000 nM.

For the molecule `CCCn1nc(COc2ccccc2CC(=O)O)c2cc(-c3ccc4ccnc(N)c4c3)ccc21` [Compound 186e, 2-(2-((5-(1-aminoisoquinolin-7-yl)-1-propyl-1H-indazol-3-yl)methoxy)phenyl)acetic acid], the IC50 is < 1000 nM.

Consider `CCCn1nc(COc2ccccc2CC(=O)O)c2cc(-c3cccc4c(N)nccc34)ccc21` [Compound 187b, 2-(2-((5-(1-aminoisoquinolin-5-yl)-1-propyl-1H-indazol-3-yl)methoxy)phenyl)acetic acid], for which the IC50 was < 1000 nM.

With `CC(C)Cn1nc(COc2ccccc2CC(=O)O)c2cc(-c3ccc4ccnc(N)c4c3)ccc21` [Compound 188e, 2-(2-((5-(1-aminoisoquinolin-7-yl)-1-isobutyl-1H-indazol-3-yl)methoxy)phenyl)acetic acid], the IC50 was < 1000 nM.

Consider `CC(C)Cn1nc(COc2ccccc2CC(=O)O)c2cc(-c3cccc4c(N)nccc34)ccc21` [Compound 189b, 2-(2-((5-(1-aminoisoquinolin-5-yl)-1-isobutyl-1H-indazol-3-yl)methoxy)phenyl)acetic acid], for which the IC50 was < 1000 nM.

On to `CC[C@@H](C)n1nc(COc2ccccc2CC(=O)O)c2cc(-c3ccc4ccnc(N)c4c3)ccc21` [Compound 190e, (R)-2-(2-((5-(1-aminoisoquinolin-7-yl)-1-(sec-butyl)-1H-indazol-3-yl)methoxy)phenyl)acetic acid], for which the IC50 was < 1000 nM.

In the case of `CC[C@@H](C)n1nc(COc2ccccc2CC(=O)O)c2cc(-c3cccc4c(N)nccc34)ccc21` [Compound 191b, (R)-2-(2-((5-(1-aminoisoquinolin-5-yl)-1-(sec-butyl)-1H-indazol-3-yl)methoxy)phenyl)acetic acid], the IC50 was < 1000 nM.

`CC[C@H](C)n1nc(COc2ccccc2CC(=O)O)c2cc(-c3ccc4ccnc(N)c4c3)ccc21` [Compound 192e, (S)-2-(2-((5-(1-aminoisoquinolin-7-yl)-1-(sec-butyl)-1H-indazol-3-yl)methoxy)phenyl)acetic acid]: the IC50 is < 1000 nM.

As to `CC[C@H](C)n1nc(COc2ccccc2CC(=O)O)c2cc(-c3cccc4c(N)nccc34)ccc21` [Compound 193b, (S)-2-(2-((5-(1-aminoisoquinolin-5-yl)-1-(sec-butyl)-1H-indazol-3-yl)methoxy)phenyl)acetic acid], the IC50 was < 1000 nM.

Regarding `CC(C)(C)OC(=O)N1CC(Cn2nc(COc3ccccc3CC(=O)O)c3cc(-c4ccc5ccnc(N)c5c4)ccc32)C1` [Compound 194g, 2-(2-((5-(1-aminoisoquinolin-7-yl)-1-((1-(tert-butoxycarbonyl)azetidin-3-yl)methyl)-1H-indazol-3-yl)methoxy)phenyl)acetic acid], the IC50 is < 1000 nM.

On to `CC(C)(C)OC(=O)N1CC(Cn2nc(COc3ccccc3CC(=O)O)c3cc(-c4cccc5c(N)nccc45)ccc32)C1` [Compound 195b, 2-(2-((5-(1-aminoisoquinolin-5-yl)-1-((1-(tert-butoxycarbonyl)azetidin-3-yl)methyl)-1H-indazol-3-yl)methoxy)phenyl)acetic acid], for which the half-maximal inhibitory concentration (IC50) is < 1000 nM.
